Laboratory results published in patent publication EP4772513A1, “PI3K-ALPHA INHIBITOR AND USE THEREOF” (TYK Medicines (Zhengzhou), Inc., priority 2023, dated 2025).

Key:
[1] = tested on: Human breast cancer cells T47D (H1047R); experiment: Cell proliferation inhibition assay (CTG), T47D (H1047R); type: cell-based; conditions: Homo sapiens, 72 h, 3 days incubation, CTG readout
Experimental: (§1) Cell Proliferation Inhibition Assay
(§2) 1. Experimental Materials
(§3) II. Experimental Protocol
(§4) • a) Cell suspension was prepared; • b) The medium was removed from the culture flask; • c) The cells were rinsed once with PBS; • d) Trypsin was added for digestion, and the cells were centrifuged and collected; • e) The cells were resuspended in medium, counted and adjusted to an appropriate concentration; • f) 100 µL of cell suspension was added to each well of a 96-well plate. One plate was used for each cell line, which was incubated overnight in a 37 °C, 5% CO2 incubator.
(§5) 2. Treatment of Compounds
(§6) • a) Serial dilutions of the test compounds were prepared: The compound was prepared as a 10 mM stock solution. 18 µL of the stock solution was dissolved in 982 µL of the culture medium containing DMSO, followed by 4-fold serial dilutions in culture medium containing 0.5% DMSO to give 9 concentrations. The concentrations of the diluted compound were as follows: 180000 nM, 45000 nM, 11250 nM, 2812.5 nM, 703.13 nM, 175.78 nM, 43.95 nM, 10.99 nM, and 2.75 nM. • b) After thorough mixing, 20 µL of each compound solution was added to the cell plate containing 100 µL of cells per well. Each concentration was tested in triplicate. Final concentrations of the compound were as follows: 30000 nM, 7500 nM, 1875 nM, 468.75 nM, 117.188 nM, 29.30 nM, 7.32 nM, 1.83 nM, and 0.46 nM. • c) The cells were transferred into the incubator and incubated for 3 days.
(§7) The cell plate was removed, 25 µL of CTG reagent was added to each well of the 96-well plate, the mixture was shook on a plate shaker at room temperature for 10 minutes, and the plate was read.
(§8) The cell survival rate was calculated using the following formula (% Cell Survival): % Cell Survival = 100% × (OD_Sample−OD_LCave)/(OD_HC−OD_LCave) [formula] • OD_HC: Reading of the 0.1‰ DMSO control group • OD_Sample: Reading of cells treated with compound • OD_LCave: Reading of blank medium
(§9) Analyzed by Prism: Dose-response-Inhibition - Log (inhibitor) vs response (three parameters for the best fit).

[2] = tested on: Human breast cancer cells SK-BR-3 (WT); experiment: Cell proliferation inhibition assay (CTG), SK-BR-3 (WT); type: cell-based; conditions: Homo sapiens, 72 h, SK-BR-3 (WT) cells, 3 days incubation, CTG readout
Experimental: as §1, §2, §3, §4, §5, §6, §7, §8, §9

Row | Compound | IC50 [1] | IC50 [2]
1 | Cc1nnn(C)c1S(=O)(=O)N1CCc2c(oc3c([C@@H](C)Nc4ccccc4C(=O)O)cc(F)cc3c2=O)C1 [Compound C157] | 500 to 2000 nM | > 5 µM
2 | CCOC(=O)c1ccccc1N[C@H](C)c1cc(C)cc2c(=O)c3c(oc12)CN(S(=O)(=O)N1CCOCC1)CC3 [Compound C165] | 500 to 2000 nM | > 5 µM
3 | Cc1cc([C@@H](C)Nc2ccccc2C(=O)O)c2oc3c(c(=O)c2c1)CCN(S(C)(=O)=O)C3 [Compound C168] | 500 to 2000 nM | > 5 µM
4 | Cc1cc([C@@H](C)Nc2ccccc2C(=O)O)c2oc3c(c(=O)c2c1)CCN(C(C)C)C3 [Compound C171] | 500 to 2000 nM | > 5 µM
5 | Cc1cc([C@@H](C)Nc2ccccc2C(=O)O)c2oc3c(c(=O)c2c1)CCN(C1CC2CCC1C2)C3 (stereo partly shown) [Compound C173] | 500 to 2000 nM | > 5 µM
6 | Cc1cc([C@@H](C)Nc2ccccc2C(=O)O)c2oc3c(c(=O)c2c1)CCN(Cc1ccccc1)C3 [Compound C176] | ≤ 500 nM | > 5 µM
7 | [2H]C([2H])([2H])n1ncc(C)c1S(=O)(=O)N1CCc2c(oc3c([C@@H](C)Nc4ccccc4C(=O)O)cc(C)cc3c2=O)C1 [Compound C177] | ≤ 500 nM | > 5 µM
8 | CC[C@H](C)N1CCc2c(oc3c([C@@H](C)Nc4ccccc4C(=O)O)cc(C)cc3c2=O)C1 [Compound C178] | ≤ 500 nM | > 5 µM
9 | CC[C@@H](C)N1CCc2c(oc3c([C@@H](C)Nc4ccccc4C(=O)O)cc(C)cc3c2=O)C1 [Compound C179] | ≤ 500 nM | > 5 µM
10 | Cc1cc([C@@H](C)Nc2ccccc2C(=O)O)c2oc3c(c(=O)c2c1)CCN(c1ccccc1)C3 [Compound C180] | ≤ 500 nM | > 5 µM
11 | Cc1cc([C@@H](C)Nc2ccccc2C(=O)O)c2oc3c(c(=O)c2c1)CCN(S(=O)(=O)Cc1ccccc1)C3 [Compound C181] | ≤ 500 nM | > 5 µM
12 | Cc1cnn(C)c1S(=O)(=O)N1CCc2c(nc3c([C@@H](C)Nc4ccccc4C(=O)O)cc(F)cn3c2=O)C1 [Compound C182] | ≤ 500 nM | > 5 µM
13 | Cc1cc([C@@H](C)Nc2ccccc2C(=O)O)c2nc3c(c(=O)n2c1)CCN(S(=O)(=O)c1c(C)cnn1C)C3 [Compound C189] | ≤ 500 nM | > 5 µM
14 | C[C@@H](Nc1ccccc1C(=O)O)c1cc(F)cn2c(=O)c3c(nc12)CN(Cc1ccccc1)CC3 [Compound C190] | 500 to 2000 nM | > 5 µM
15 | Cc1cc([C@@H](C)Nc2ccccc2C(=O)O)c2nc3c(c(=O)n2c1)CCN(S(=O)(=O)c1ccccc1)C3 [Compound C191] | ≤ 500 nM | > 5 µM
16 | C[C@@H](Nc1ccccc1C(=O)O)c1cc(F)cn2c(=O)c3c(nc12)CN(S(=O)(=O)c1ccccc1)CC3 [Compound C192] | ≤ 500 nM | > 5 µM
17 | CC(C)S(=O)(=O)N1CCc2c(nc3c([C@@H](C)Nc4ccccc4C(=O)O)cc(F)cn3c2=O)C1 [Compound C193] | ≤ 500 nM | > 5 µM
18 | C[C@@H](Nc1ccccc1C(=O)O)c1cc(F)cn2c(=O)c3c(nc12)CN(c1ccccc1)CC3 [Compound C208] | 500 to 2000 nM | > 5 µM

The remaining lines, values ahead:

Row | IC50 [1] | IC50 [2] | Compound
19 | ≤ 500 nM | > 5 µM | C[C@@H](Nc1ccccc1C(=O)O)c1cc(F)cc2c(=O)c3c(oc12)CN(S(=O)(=O)N1CCOC(C)(C)C1)CC3 [Compound C143]
20 | ≤ 500 nM | > 5 µM | Cc1cc([C@@H](C)Nc2ccccc2C(=O)O)c2oc3c(c(=O)c2c1)CCN(S(=O)(=O)N1CCO[C@H](C)C1)C3 [Compound C144]
21 | ≤ 500 nM | > 5 µM | C[C@@H]1CN(S(=O)(=O)N2CCc3c(oc4c([C@@H](C)Nc5ccccc5C(=O)O)cc(F)cc4c3=O)C2)CCO1 [Compound C145]
22 | ≤ 500 nM | > 5 µM | C[C@@H](Nc1ccccc1C(=O)O)c1cc(F)cc2c(=O)c3c(oc12)CN(S(=O)(=O)C1CCOCC1)CC3 [Compound C146]
23 | ≤ 500 nM | > 5 µM | Cc1cc([C@@H](C)Nc2ccccc2C(=O)O)c2oc3c(c(=O)c2c1)CCN(S(=O)(=O)N1CCOC2(CC2)C1)C3 [Compound C147]
24 | ≤ 500 nM | > 5 µM | C[C@@H](Nc1ccccc1C(=O)O)c1cc(F)cc2c(=O)c3c(oc12)CN(S(=O)(=O)N1CCOC2(CC2)C1)CC3 [Compound C148]
25 | ≤ 500 nM | > 5 µM | Cc1cc([C@@H](C)Nc2ccccc2C(=O)O)c2oc3c(c(=O)c2c1)CCN(S(=O)(=O)c1cccc2c1CCO2)C3 [Compound C149]
26 | ≤ 500 nM | > 5 µM | C[C@@H](Nc1ccccc1C(=O)O)c1cc(F)cc2c(=O)c3c(oc12)CN(S(=O)(=O)c1cccc2c1CCO2)CC3 [Compound C150]
27 | ≤ 500 nM | > 5 µM | Cc1cc([C@@H](C)Nc2ccccc2C(=O)O)c2oc3c(c(=O)c2c1)CCN(S(=O)(=O)c1c(Cl)ccc2c1CCO2)C3 [Compound C151]
28 | ≤ 500 nM | > 5 µM | C[C@@H](Nc1ccccc1C(=O)O)c1cc(F)cc2c(=O)c3c(oc12)CN(S(=O)(=O)c1c(Cl)ccc2c1CCO2)CC3 [Compound C152]
29 | ≤ 500 nM | > 5 µM | Cc1cc([C@@H](C)Nc2ccccc2C(=O)O)c2oc3c(c(=O)c2c1)CCN(S(=O)(=O)N1CCC(F)(F)CC1)C3 [Compound C153]
30 | ≤ 500 nM | > 5 µM | Cc1cc([C@@H](C)Nc2ccccc2C(=O)O)c2oc3c(c(=O)c2c1)CCN(S(=O)(=O)N1C[C@@H](C)O[C@H](C)C1)C3 [Compound C154]
31 | ≤ 500 nM | > 5 µM | C[C@@H]1CN(S(=O)(=O)N2CCc3c(oc4c([C@@H](C)Nc5ccccc5C(=O)O)cc(F)cc4c3=O)C2)C[C@@H](C)O1 [Compound C155]
32 | ≤ 500 nM | > 5 µM | Cc1cc([C@@H](C)Nc2ccccc2C(=O)O)c2oc3c(c(=O)c2c1)CCN(S(=O)(=O)c1c(C)nnn1C)C3 [Compound C156]
33 | ≤ 500 nM | > 5 µM | Cc1cc([C@@H](C)Nc2ccccc2C(=O)O)c2oc3c(c(=O)c2c1)CCN(S(=O)(=O)c1c(C)cnn1C)C3 [Compound C158]
34 | ≤ 500 nM | > 5 µM | Cc1cnn(C)c1S(=O)(=O)N1CCc2c(oc3c([C@@H](C)Nc4ccccc4C(=O)O)cc(F)cc3c2=O)C1 [Compound C159]
35 | ≤ 500 nM | > 5 µM | Cc1nsc(C)c1S(=O)(=O)N1CCc2c(oc3c([C@@H](C)Nc4ccccc4C(=O)O)cc(F)cc3c2=O)C1 [Compound C160]
36 | ≤ 500 nM | > 5 µM | Cc1cc([C@@H](C)Nc2ccccc2C(=O)O)c2oc3c(c(=O)c2c1)CCN(S(=O)(=O)c1ccccc1F)C3 [Compound C162]
37 | ≤ 500 nM | > 5 µM | Cc1cc([C@@H](C)Nc2ccccc2C(=O)O)c2oc3c(c(=O)c2c1)CCN(c1ccccn1)C3 [Compound C172]
38 | ≤ 500 nM | > 5 µM | Cc1cc([C@@H](C)Nc2ccccc2C(=O)O)c2oc3c(c(=O)c2c1)CCN(c1ncccn1)C3 [Compound C175]
